# Test results reported in patent US10329289B2, “6,7-dihydro-5H-pyrrolo[3,4-B]pyridin-5-one allosteric modulators of the M4 muscarinic acetylcholine receptor” (Merck Sharp & Dohme Corp., priority 2015, dated 2019).
# Molecular target: T1, human M4 muscarinic acetylcholine receptor (Homo sapiens, UniProt P08173)
# T1 construct: expressed in transfected cells; host or cells: CHO-K1
# T1 sequence (P08173 1-479): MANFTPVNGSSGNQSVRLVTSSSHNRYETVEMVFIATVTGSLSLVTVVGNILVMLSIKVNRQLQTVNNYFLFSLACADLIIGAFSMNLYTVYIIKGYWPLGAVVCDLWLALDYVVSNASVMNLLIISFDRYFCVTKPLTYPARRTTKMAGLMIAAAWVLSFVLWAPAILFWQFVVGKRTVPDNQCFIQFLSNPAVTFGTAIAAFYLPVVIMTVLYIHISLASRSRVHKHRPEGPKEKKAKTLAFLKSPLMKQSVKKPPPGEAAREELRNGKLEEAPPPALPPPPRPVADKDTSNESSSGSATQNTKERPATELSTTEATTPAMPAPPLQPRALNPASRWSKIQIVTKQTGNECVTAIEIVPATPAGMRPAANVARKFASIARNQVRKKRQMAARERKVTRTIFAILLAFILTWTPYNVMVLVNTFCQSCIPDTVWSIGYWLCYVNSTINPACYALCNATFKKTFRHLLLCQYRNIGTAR
# Assay: human FLIPR-based M4 PAM assay (Ca2+ mobilization, CHO-K1 cells with human M4 receptor and Gαqi5)
# Type: cell-based
# Conditions: acetylcholine at 20% of maximum response, read-out: M4 PAM IP
# Procedure, shortened: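 CHO-K1 cells stably expressing human M4 and chimeric Gαqi5 were dye-loaded ~1 h at 37 °C and read for Ca2+ fluorescence. Compound followed by acetylcholine at an EC20 (sometimes an EC70 third addition); inflection point from a 4-parameter logistic fit.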
row,Compound,EC50
1,"Cc1cc2c(nc1N1CCC(Oc3ccccc3)CC1)CN(C(C)C)C2=O [Example 247, 6-isopropyl-3-methyl-2-(4-phenoxypiperidin-1-yl)-6,7-dihydro-5H-pyrrolo[3,4-b]pyridin-5-one]",137 nM
2,"Cc1cc2c(nc1N1CC[C@@H](Oc3ccccc3)[C@@H](F)C1)CN(C(C)C)C2=O [Example 248, 2-((3S,4R)-3-fluoro-4-phenoxypiperidin-1-yl)-6-isopropyl-3-methyl-6,7-dihydro-5H-pyrrolo[3,4-b]pyridin-5-one]",88 nM
3,"Cc1cc2c(nc1N1CCC(Oc3cccc(C#N)c3)CC1)CN(C1CC1)C2=O [Example 249, 3-((1-(6-cyclopropyl-3-methyl-5-oxo-6,7-dihydro-5H-pyrrolo[3,4-b]pyridin-2-yl)piperidin-4-yl)oxy)benzonitrile]",32 nM
4,"Cc1cc2c(nc1N1CCC(Oc3ccccc3)CC1)CN(C1CC1)C2=O [Example 250, 6-cyclopropyl-3-methyl-2-(4-phenoxypiperidin-1-yl)-6,7-dihydro-5H-pyrrolo[3,4-b]pyridin-5-one]",149 nM
5,"COc1ccc(OC2CCN(c3nc4c(cc3C)C(=O)N(CC3COC3)C4)CC2)cn1 [Example 250A, 2-(4-((6-methoxypyridin-3-yl)oxy)piperidin-1-yl)-3-methyl-6-(oxetan-3-ylmethyl)-6,7-dihydro-5H-pyrrolo[3,4-b]pyridin-5-one]",70 nM
6,"COCCCN1Cc2nc(N3CCC(Oc4ccc(OC)nc4)CC3)c(C)cc2C1=O [Example 251, 6-(3-methoxypropyl)-2-(4-((6-methoxypyridin-3-yl)oxy)piperidin-1-yl)-3-methyl-6,7-dihydro-5H-pyrrolo[3,4-b]pyridin-5-one]",198 nM
7,"COCCN1Cc2nc(N3CCC(Oc4ccc(OC)nc4)CC3)c(C)cc2C1=O [Example 252, 6-(2-methoxyethyl)-2-(4-((6-methoxypyridin-3-yl)oxy)piperidin-1-yl)-3-methyl-6,7-dihydro-5H-pyrrolo[3,4-b]pyridin-5-one]",94 nM
8,"Cc1cc2c(nc1N1CCC(Oc3ccc(F)cc3)CC1)CN(C)C2=O [Example 253, 2-(4-(4-fluorophenoxy)piperidin-1-yl)-3,6-dimethyl-6,7-dihydro-5H-pyrrolo[3,4-b]pyridin-5-one]",49 nM
9,"CCOc1ccc(OC2CCN(c3nc4c(cc3C)C(=O)N(CCO)C4)CC2)cn1 [Example 254, 2-(4-((6-ethoxypyridin-3-yl)oxy)piperidin-1-yl)-6-(2-hydroxyethyl)-3-methyl-6,7-dihydro-5H-pyrrolo[3,4-b]pyridin-5-one]",69 nM
10,"Cc1cc2c(nc1N1CC[C@@H](Oc3ccc4c(c3)COC4)[C@@H](F)C1)CN(CCO)C2=O [Example 255, 2-((3S,4R)-4-((1,3-dihydro-2-benzofuran-5-yl)oxy)-3-fluoropiperidin-1-yl)-6-(2-hydroxyethyl)-3-methyl-6,7-dihydro-5H-pyrrolo[3,4-b]pyridin-5-one]",29 nM
11,"COC(=O)CN1Cc2nc(N3CCC(OCC4(C)CC4)CC3)c(C)c(C)c2C1=O [Example 256, methyl 2-(3,4-dimethyl-2-(4-((1-methylcyclopropyl)methoxy)piperidin-1-yl)-5-oxo-5,7-dihydro-6H-pyrrolo[3,4-b]pyridin-6-yl)acetate]",85 nM
12,"Cc1cc2c(nc1N1CC[C@@H](Oc3ccc4c(c3)COC4)[C@H](F)C1)CN(CCO)C2=O [Example 257, 2-((3R,4R)-4-((1,3-dihydro-2-benzofuran-5-yl)oxy)-3-fluoropiperidin-1-yl)-6-(2-hydroxyethyl)-3-methyl-6,7-dihydro-5H-pyrrolo[3,4-b]pyridin-5-one]",84 nM
13,"CCc1cc2c(nc1N1CCC(Oc3ccc4c(c3)COC4)CC1)CN(CCO)C2=O [Example 258, 2-(4-((1,3-dihydro-2-benzofuran-5-yl)oxy)piperidin-1-yl)-3-ethyl-6-(2-hydroxyethyl)-6,7-dihydro-5H-pyrrolo[3,4-b]pyridin-5-one]",126 nM
14,"COc1ccc(OC2CCN(c3nc4c(cc3C)C(=O)N(Cc3ccncc3)C4)CC2)cn1 [Example 259, 2-(4-((6-methoxypyridin-3-yl)oxy)piperidin-1-yl)-3-methyl-6-(pyridin-4-ylmethyl)-6,7-dihydro-5H-pyrrolo[3,4-b]pyridin-5-one]",87 nM
15,"COC(=O)CN1Cc2nc(N3CCC(Oc4ccc(OC)nc4)CC3)c(C)cc2C1=O [Example 260, methyl 2-(2-(4-((6-methoxypyridin-3-yl)oxy)piperidin-1-yl)-3-methyl-5-oxo-5,7-dihydro-6H-pyrrolo[3,4-b]pyridin-6-yl)acetate]",141 nM
16,"Cc1c(N2CC[C@@H](Oc3ccc4c(c3)COC4)[C@@H](F)C2)nc2c(c1C)C(=O)N(CCO)C2 [Example 261, 2-((3S,4R)-4-((1,3-dihydro-2-benzofuran-5-yl)oxy)-3-fluoropiperidin-1-yl)-6-(2-hydroxyethyl)-3,4-dimethyl-6,7-dihydro-5H-pyrrolo[3,4-b]pyridin-5-one]",39 nM
17,"Cc1cc2c(nc1N1CC[C@@H](Oc3ccc(F)cc3)[C@@H](F)C1)CN(CCO)C2=O [Example 262, 2-((3S,4R)-3-fluoro-4-(4-fluorophenoxy)piperidin-1-yl)-6-(2-hydroxyethyl)-3-methyl-6,7-dihydro-5H-pyrrolo[3,4-b]pyridin-5-one]",43 nM
18,"Cc1cc2c(nc1N1CCC(Oc3ccc4c(c3)COC4)CC1)CN(CCO)C2=O [Example 263, 2-(4-((1,3-dihydro-2-benzofuran-5-yl)oxy)piperidin-1-yl)-6-(2-hydroxyethyl)-3-methyl-6,7-dihydro-5H-pyrrolo[3,4-b]pyridin-5-one]",57 nM
19,"Cc1cc2c(nc1N1CCC(Oc3ccc(F)cc3)CC1)CN(CCO)C2=O [Example 264, 2-(4-(4-Fluorophenoxy)piperidin-1-yl)-6-(2-hydroxyethyl)-3-methyl-6,7-dihydro-5H-pyrrolo[3,4-b]pyridin-5-one]",36 nM
20,"Cc1c(N2CCC(Oc3ccccc3)CC2)nc2c(c1C)C(=O)N(CCO)C2 [Example 265, 6-(2-hydroxyethyl)-3,4-dimethyl-2-(4-phenoxypiperidin-1-yl)-6,7-dihydro-5H-pyrrolo[3,4-b]pyridin-5-one]",46 nM

# Second part, the compound after the results:
row,EC50,Compound
1,803 nM,"COc1ccc(OC2CCN(c3nc4c(cc3C)C(=O)N(CC3COC3)C4CC3COC3)CC2)cn1 (centres unmarked) [Example 255A, 2-(4-((6-methoxypyridin-3-yl)oxy)piperidin-1-yl)-3-methyl-6,7-bis(oxetan-3-ylmethyl)-6,7-dihydro-5H-pyrrolo[3,4-b]pyridin-5-one]"
2,117 nM,"Cc1c(N2CCC(OCC3(C)CC3(F)F)CC2)nc2c(c1C)C(=O)N(CCO)C2 (centres unmarked) [Example 259A, 2-(4-((2,2-difluoro-1-methylcyclopropyl)methoxy)piperidin-1-yl)-6-(2-hydroxyethyl)-3,4-dimethyl-6,7-dihydro-5H-pyrrolo[3,4-b]pyridin-5-one]"
3,43 nM,"COCCN1Cc2nc(N3CCC(Oc4ccc5c(c4)COC5)CC3)c(C)c(C)c2C1=O [Example 260A, 2-(4-((1,3-dihydro-2-benzofuran-5-yl)oxy)piperidin-1-yl)-6-(2-methoxyethyl)-3,4-dimethyl-6,7-dihydro-5H-pyrrolo[3,4-b]pyridin-5-one]"
4,40 nM,"COCCN1Cc2nc(N3CCC(Oc4ccc5c(c4)COC5)CC3)c(C)cc2C1=O [Example 263A, 2-(4-((1,3-dihydro-2-benzofuran-5-yl)oxy)piperidin-1-yl)-6-(2-methoxyethyl)-3-methyl-6,7-dihydro-5H-pyrrolo[3,4-b]pyridin-5-one]"
5,38 nM,"Cc1c(N2CCC(Oc3ccc4c(c3)COC4)CC2)nc2c(c1C)C(=O)N(CCO)C2 [Example 264A, 2-(4-((1,3-Dihydro-2-benzofuran-5-yl)oxy)piperidin-1-yl)-6-(2-hydroxyethyl)-3,4-dimethyl-6,7-dihydro-5H-pyrrolo[3,4-b]pyridin-5-one]"
6,79 nM,"Cc1c(N2CCC(Oc3ccc4c(c3)C[C@H](O)C4)CC2)nc2c(c1C)C(=O)N(CCO)C2 [Example 264D, (R)-2-(4-((2-hydroxy-2,3-dihydro-1H-inden-5-yl)oxy)piperidin-1-yl)-6-(2-hydroxyethyl)-3,4-dimethyl-6,7-dihydro-5H-pyrrolo[3,4-b]pyridin-5-one]"
7,125 nM,"Cc1c(N2CCC(Oc3ccc4c(c3)C[C@@H](O)C4)CC2)nc2c(c1C)C(=O)N(CCO)C2 [Example 264E, (S)-2-(4-((2-hydroxy-2,3-dihydro-1H-inden-5-yl)oxy)piperidin-1-yl)-6-(2-hydroxyethyl)-3,4-dimethyl-6,7-dihydro-5H-pyrrolo[3,4-b]pyridin-5-one]"
8,100 nM,"CCc1cc2c(nc1N1CCC(Oc3ccc4c(c3)OCC4)CC1)CN(CCO)C2=O [Example 265A, 2-(4-((2,3-dihydrobenzofuran-6-yl)oxy)piperidin-1-yl)-3-ethyl-6-(2-hydroxyethyl)-6,7-dihydro-5H-pyrrolo[3,4-b]pyridin-5-one]"
9,123 nM,"Cc1c(N2CCC(OC[C@@]3(C)CC3(F)F)CC2)nc2c(c1C)C(=O)N(CCO)C2 [Example 265B, (R)-2-(4-((2,2-difluoro-1-methylcyclopropyl)methoxy)piperidin-1-yl)-6-(2-hydroxyethyl)-3,4-dimethyl-6,7-dihydro-5H-pyrrolo[3,4-b]pyridin-5-one]"
